Assays:
[1] = target: Serine/threonine-protein kinase mTOR (Homo sapiens, UniProt P42345); assay: Inhibition of mTOR-mediated S6 phosphorylation in human PC3 cells; type: cell-based, PC-3
[2] = target: Glycogen synthase kinase-3 alpha (Homo sapiens, UniProt P49840); assay: Inhibition of GSK3alpha assessed as activity remaining at 10 uM
[3] = Inhibition of CK2 assessed as activity remaining at 10 uM
[4] = target: Angiopoietin-1 receptor (Homo sapiens) (UniProt Q02763); assay: Inhibition of Tie2 assessed as activity remaining at 10 uM
[5] = target: Rho-associated protein kinase 1 (Homo sapiens) (UniProt Q13464); assay: Inhibition of ROCK1 assessed as activity remaining at 10 uM
[6] = target: Epidermal growth factor receptor (Homo sapiens) (UniProt P00533); assay: Inhibition of EGFR assessed as activity remaining at 10 uM
[7] = target: Tyrosine-protein kinase CSK (Homo sapiens) (UniProt P41240); assay: Inhibition of CSK assessed as activity remaining at 10 uM
[8] = target: Cyclin-dependent kinase 2 (Homo sapiens) (UniProt P24941); assay: Inhibition of CDK2 assessed as activity remaining at 10 uM
[9] = Inhibition of p70S6K assessed as activity remaining at 10 uM
[10] = target: Mitogen-activated protein kinase 1 (Homo sapiens) (UniProt P28482); assay: Inhibition of MAPK1 assessed as activity remaining at 10 uM
[11] = target: Homeodomain-interacting protein kinase 1 (Homo sapiens) (UniProt Q86Z02); assay: Inhibition of HIPK1 assessed as activity remaining at 10 uM
[12] = target: Mitogen-activated protein kinase 14 (Homo sapiens) (UniProt Q16539); assay: Inhibition of p38alpha assessed as activity remaining at 10 uM
PC-3 = assay: Antiproliferative activity against human PC3 cells
[13] = target: Protein kinase C theta type (Homo sapiens) (UniProt Q04759); assay: Inhibition of PKC-theta assessed as activity remaining at 10 uM
[14] = target: T1, Interleukin-1 receptor-associated kinase 4 (Homo sapiens) (UniProt Q9NWZ3); assay: Inhibition of IRAK4 assessed as activity remaining at 10 uM
T1 sequence (whole entry): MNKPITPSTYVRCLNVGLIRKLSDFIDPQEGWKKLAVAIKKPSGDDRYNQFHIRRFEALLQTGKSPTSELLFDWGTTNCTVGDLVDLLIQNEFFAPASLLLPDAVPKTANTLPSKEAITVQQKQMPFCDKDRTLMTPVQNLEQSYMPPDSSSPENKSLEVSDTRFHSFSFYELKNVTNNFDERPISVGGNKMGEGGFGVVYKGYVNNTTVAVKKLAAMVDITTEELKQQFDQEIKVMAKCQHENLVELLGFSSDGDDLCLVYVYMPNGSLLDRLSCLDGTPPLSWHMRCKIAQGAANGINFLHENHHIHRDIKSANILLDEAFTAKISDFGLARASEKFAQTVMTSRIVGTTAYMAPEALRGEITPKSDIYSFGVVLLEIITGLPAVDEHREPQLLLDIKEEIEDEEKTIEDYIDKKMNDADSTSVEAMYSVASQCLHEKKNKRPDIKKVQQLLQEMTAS

[15] = target: Proto-oncogene tyrosine-protein kinase receptor Ret (Homo sapiens) (UniProt P07949); assay: Inhibition of Ret assessed as activity remaining at 10 uM
[16] = Inhibition of AMPK assessed as activity remaining at 10 uM
[17] = target: Receptor-type tyrosine-protein kinase FLT3 (Homo sapiens) (UniProt P36888); assay: Inhibition of Flt3 assessed as activity remaining at 10 uM
[18] = target: T2, Tyrosine-protein kinase JAK3 (Homo sapiens) (UniProt P52333); assay: Inhibition of JAK3 assessed as activity remaining at 10 uM
T2 sequence (whole entry): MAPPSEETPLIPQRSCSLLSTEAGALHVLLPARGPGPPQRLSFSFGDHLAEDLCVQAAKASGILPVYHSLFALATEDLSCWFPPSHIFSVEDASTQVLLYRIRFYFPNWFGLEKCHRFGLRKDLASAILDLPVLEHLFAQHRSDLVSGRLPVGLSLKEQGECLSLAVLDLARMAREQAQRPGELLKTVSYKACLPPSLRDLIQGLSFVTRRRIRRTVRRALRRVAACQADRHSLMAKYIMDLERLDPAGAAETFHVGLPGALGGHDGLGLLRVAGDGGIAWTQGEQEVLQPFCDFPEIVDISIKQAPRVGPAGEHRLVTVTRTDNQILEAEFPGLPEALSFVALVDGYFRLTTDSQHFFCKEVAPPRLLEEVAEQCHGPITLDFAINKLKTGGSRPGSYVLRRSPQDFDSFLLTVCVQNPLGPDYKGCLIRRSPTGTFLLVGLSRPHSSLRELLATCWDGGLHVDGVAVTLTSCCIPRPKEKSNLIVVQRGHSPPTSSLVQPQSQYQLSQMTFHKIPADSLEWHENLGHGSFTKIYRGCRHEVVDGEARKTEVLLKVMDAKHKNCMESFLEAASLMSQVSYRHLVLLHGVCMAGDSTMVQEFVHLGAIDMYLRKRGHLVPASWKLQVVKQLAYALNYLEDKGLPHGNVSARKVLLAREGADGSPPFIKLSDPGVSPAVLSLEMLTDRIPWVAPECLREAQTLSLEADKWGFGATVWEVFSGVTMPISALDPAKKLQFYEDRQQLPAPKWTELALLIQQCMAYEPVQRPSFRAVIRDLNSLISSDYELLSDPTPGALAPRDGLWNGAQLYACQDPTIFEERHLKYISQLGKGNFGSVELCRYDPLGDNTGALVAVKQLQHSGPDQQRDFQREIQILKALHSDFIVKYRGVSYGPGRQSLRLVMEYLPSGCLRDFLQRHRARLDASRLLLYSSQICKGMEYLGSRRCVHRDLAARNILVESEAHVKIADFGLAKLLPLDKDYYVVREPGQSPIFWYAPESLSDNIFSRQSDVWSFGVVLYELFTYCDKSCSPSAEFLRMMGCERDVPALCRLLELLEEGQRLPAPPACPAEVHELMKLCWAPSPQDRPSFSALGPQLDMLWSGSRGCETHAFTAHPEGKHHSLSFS

[19] = target: RAC-alpha serine/threonine-protein kinase (Homo sapiens) (UniProt P31749); assay: Inhibition of PKB-alpha assessed as activity remaining at 10 uM
RAC-alpha serine/threonine-protein kinase (Homo sapiens), sequence (P31749 whole entry): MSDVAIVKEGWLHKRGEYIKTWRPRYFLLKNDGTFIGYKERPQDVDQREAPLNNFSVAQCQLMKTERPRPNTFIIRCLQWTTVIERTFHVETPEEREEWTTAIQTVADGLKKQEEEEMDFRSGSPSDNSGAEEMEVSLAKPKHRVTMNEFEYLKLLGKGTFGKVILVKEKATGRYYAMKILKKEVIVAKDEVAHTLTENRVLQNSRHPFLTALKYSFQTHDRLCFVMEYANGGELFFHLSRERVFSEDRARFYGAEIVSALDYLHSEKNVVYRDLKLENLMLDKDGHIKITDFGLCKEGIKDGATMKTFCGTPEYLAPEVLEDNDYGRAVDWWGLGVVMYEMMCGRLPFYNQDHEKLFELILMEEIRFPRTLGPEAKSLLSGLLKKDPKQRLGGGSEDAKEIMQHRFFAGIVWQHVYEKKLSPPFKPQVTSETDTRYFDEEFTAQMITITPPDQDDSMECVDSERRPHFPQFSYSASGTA

Angiopoietin-1 receptor (Homo sapiens), sequence (Q02763 whole entry): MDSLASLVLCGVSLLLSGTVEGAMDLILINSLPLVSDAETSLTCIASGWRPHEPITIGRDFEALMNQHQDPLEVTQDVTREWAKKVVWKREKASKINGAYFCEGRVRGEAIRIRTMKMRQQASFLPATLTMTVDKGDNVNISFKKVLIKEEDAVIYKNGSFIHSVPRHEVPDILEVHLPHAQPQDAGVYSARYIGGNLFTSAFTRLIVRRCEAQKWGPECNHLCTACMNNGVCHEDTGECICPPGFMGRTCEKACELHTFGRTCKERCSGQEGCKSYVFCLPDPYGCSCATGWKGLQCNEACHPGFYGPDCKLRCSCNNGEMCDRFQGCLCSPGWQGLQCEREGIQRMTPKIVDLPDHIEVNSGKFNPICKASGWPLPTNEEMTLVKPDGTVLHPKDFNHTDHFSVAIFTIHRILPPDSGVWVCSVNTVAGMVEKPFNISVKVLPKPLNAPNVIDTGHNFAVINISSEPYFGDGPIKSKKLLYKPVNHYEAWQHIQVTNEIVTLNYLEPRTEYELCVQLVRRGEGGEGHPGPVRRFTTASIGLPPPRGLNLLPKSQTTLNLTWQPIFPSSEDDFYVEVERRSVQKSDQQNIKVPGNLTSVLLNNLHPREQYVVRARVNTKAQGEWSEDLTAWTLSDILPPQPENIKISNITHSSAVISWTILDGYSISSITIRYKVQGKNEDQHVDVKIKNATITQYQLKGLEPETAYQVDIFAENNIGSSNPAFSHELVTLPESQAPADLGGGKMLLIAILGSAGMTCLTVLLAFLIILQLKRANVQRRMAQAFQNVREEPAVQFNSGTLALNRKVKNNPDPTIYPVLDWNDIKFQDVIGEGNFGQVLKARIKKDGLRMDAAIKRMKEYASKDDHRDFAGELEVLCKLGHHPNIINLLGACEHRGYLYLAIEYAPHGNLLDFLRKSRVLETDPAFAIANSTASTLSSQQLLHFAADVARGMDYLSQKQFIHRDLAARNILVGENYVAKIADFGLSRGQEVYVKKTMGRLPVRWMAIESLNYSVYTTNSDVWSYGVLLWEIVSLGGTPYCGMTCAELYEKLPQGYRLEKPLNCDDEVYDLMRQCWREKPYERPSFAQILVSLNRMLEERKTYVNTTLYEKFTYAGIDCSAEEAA
Protein kinase C theta type (Homo sapiens), sequence (Q04759 whole entry, looked up): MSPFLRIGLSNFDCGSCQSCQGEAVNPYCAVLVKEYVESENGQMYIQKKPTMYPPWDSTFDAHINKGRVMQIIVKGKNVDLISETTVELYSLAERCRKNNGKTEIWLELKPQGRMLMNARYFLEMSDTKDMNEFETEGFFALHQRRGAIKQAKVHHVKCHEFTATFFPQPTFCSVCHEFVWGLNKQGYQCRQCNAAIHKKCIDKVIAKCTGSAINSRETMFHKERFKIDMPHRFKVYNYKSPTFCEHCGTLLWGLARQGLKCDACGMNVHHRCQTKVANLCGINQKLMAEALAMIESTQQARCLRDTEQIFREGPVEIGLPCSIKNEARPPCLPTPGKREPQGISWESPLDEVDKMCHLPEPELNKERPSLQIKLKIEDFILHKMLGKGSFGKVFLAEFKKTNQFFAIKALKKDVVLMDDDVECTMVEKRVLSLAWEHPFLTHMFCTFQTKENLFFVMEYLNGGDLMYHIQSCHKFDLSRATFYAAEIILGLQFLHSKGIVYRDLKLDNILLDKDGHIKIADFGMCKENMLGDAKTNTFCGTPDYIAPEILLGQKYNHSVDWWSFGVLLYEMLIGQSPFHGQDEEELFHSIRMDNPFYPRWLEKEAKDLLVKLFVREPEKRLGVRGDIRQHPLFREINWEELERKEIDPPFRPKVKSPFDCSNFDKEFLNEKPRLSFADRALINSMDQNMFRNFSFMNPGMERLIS
Proto-oncogene tyrosine-protein kinase receptor Ret (Homo sapiens), sequence (P07949 whole entry): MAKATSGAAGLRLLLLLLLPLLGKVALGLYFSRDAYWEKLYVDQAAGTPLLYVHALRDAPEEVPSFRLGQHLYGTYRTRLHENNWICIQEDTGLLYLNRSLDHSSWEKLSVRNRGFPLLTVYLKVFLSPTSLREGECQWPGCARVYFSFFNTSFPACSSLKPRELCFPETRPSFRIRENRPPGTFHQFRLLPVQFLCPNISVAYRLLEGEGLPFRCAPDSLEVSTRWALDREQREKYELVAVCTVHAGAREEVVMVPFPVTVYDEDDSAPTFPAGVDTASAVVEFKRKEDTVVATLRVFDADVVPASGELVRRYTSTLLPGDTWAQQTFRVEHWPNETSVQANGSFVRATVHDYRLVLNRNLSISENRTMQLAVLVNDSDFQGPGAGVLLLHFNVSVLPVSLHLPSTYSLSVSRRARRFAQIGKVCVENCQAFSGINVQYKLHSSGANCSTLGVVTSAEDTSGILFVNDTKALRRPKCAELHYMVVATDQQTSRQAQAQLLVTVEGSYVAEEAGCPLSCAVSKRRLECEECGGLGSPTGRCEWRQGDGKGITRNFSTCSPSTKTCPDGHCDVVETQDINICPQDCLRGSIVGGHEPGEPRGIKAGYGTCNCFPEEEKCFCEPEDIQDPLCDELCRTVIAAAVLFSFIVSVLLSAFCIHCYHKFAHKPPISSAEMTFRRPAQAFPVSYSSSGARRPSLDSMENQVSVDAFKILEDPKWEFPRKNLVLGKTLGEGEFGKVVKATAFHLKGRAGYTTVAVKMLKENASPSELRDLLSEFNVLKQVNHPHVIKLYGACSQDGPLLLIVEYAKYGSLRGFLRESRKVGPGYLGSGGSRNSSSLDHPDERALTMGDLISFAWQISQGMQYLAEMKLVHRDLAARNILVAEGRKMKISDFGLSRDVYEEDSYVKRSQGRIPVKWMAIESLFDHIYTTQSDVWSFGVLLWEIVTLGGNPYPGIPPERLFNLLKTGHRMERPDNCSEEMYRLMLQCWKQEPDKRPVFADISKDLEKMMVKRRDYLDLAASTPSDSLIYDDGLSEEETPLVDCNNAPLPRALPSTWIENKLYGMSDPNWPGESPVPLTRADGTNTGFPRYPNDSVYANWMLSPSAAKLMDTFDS
Rho-associated protein kinase 1 (Homo sapiens), sequence (Q13464 2-1354 limits assumed): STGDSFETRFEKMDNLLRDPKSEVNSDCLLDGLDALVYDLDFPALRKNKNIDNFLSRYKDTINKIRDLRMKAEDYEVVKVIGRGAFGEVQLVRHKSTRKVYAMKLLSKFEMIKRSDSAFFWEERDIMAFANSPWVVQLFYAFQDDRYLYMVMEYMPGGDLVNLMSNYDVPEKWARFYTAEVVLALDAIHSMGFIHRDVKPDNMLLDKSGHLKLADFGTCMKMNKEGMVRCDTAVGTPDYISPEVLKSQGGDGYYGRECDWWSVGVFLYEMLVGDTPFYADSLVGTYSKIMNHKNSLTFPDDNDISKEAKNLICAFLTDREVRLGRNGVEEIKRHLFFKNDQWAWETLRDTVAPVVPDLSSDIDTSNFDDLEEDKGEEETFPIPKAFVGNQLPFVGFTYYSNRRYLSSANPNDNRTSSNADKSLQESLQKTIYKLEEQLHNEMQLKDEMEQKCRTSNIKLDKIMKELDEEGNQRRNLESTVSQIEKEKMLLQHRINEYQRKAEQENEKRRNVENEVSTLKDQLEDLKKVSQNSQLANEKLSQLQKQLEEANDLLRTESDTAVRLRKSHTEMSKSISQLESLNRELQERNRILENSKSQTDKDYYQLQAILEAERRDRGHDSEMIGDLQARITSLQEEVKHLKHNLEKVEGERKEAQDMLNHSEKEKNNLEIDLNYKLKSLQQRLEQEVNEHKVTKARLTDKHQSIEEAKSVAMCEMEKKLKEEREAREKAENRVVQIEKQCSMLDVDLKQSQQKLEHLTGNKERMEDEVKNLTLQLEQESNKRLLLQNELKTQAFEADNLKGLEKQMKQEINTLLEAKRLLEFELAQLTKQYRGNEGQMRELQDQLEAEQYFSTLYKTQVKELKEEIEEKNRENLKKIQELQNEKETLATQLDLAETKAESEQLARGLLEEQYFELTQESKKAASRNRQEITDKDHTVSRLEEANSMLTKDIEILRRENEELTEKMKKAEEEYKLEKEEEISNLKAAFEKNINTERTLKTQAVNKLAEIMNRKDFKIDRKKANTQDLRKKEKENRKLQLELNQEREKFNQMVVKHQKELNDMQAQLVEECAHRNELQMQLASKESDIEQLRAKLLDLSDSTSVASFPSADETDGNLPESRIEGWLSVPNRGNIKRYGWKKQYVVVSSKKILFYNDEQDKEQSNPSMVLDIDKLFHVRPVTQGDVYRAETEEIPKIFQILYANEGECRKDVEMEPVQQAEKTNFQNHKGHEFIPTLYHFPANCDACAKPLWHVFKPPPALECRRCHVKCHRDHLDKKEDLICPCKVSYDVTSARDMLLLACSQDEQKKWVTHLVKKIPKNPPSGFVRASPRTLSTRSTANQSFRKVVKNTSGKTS

Row | SMILES | IC50 [1] [nM] | Activity [2] [%] | Activity [3] [%] | Activity [4] [%] | Activity [5] [%] | Activity [6] [%] | Activity [7] [%] | Activity [8] [%] | Activity [9] [%] | Activity [10] [%] | Activity [11] [%] | Activity [12] [%] | IC50 (PC-3) [nM] | Activity [13] [%] | Activity [14] [%] | Activity [15] [%] | Activity [16] [%] | Activity [17] [%] | Activity [18] [%] | Activity [19] [%]
1 | O=c1[nH]c2ncc(-c3ccc(-c4nc[nH]n4)cc3)nc2n1CC1CCOCC1 | 273 | 39 | 99 | 86 | 96 | 88 | 96 | 90 | 96 | 86 | 91 | 92 | 1370 | 82 | 97 | 84 | 101 | 55 | 96 | 97
2 | O=c1[nH]c2ncc(-c3ccc4[nH]cnc4c3)nc2n1CC1CCCCC1 | 427 | 3 | 73 | 83 | 96 | 87 | 90 | 81 | 86 | 110 | 84 | 75 | 1160 | 73 | 112 | 80 | 76 | 46 | 95 | 92
3 | CC(C)(O)c1ccc(-c2cnc3[nH]c(=O)n(CC4CCCCC4)c3n2)cc1 | 1350 | 16 | 95 | 85 | 97 | 98 | 86 | 81 | 99 | 95 | 94 | 92 | 1380 | 80 | 87 | 77 | 89 | 71 | 101 | 94
